Test results taken from the NIST ThermoML archive (doi:10.1021/je700021f).
± gives the expanded uncertainty stated by the source.

Columns and labels:
[1] = 101 kPa, Liquid, Pulse-echo method
[2] = xn = mol fraction of the nth substance listed; conditions: 101 kPa, Liquid, Pulse-echo method, x1 = 1

With CCCCCCCCCCl [1-chlorononane] the speed of sound ([1]; 293.15 K) was 1297.2 ± 3.4 m/s, the speed of sound ([1]; 298.15 K) was 1278.2 ± 3.3 m/s and the speed of sound ([1]; 303.15 K) was 1259.5 ± 3.3 m/s. The speed of sound ([1]; 308.15 K) was 1240.9 ± 3.3 m/s, the speed of sound ([1]; 313.15 K) was 1222.5 ± 3.2 m/s and the speed of sound ([1]; 318.15 K) was 1204.3 ± 3.2 m/s. For the same compound, the speed of sound ([1]; 323.15 K) was 1186.3 ± 3.2 m/s, the speed of sound ([1]; 328.15 K) was 1168.4 ± 3.1 m/s and the speed of sound ([1]; 333.15 K) was 1150.7 ± 3.1 m/s. The speed of sound ([1]; 338.15 K) was 1133.2 ± 3.1 m/s, the speed of sound ([1]; 343.15 K) was 1115.9 ± 3.1 m/s and the speed of sound ([1]; 348.15 K) was 1098.8 ± 3 m/s. For the same compound, the speed of sound ([1]; 353.15 K) was 1081.9 ± 3 m/s, the speed of sound ([1]; 358.15 K) was 1065.1 ± 3 m/s and the speed of sound ([1]; 363.15 K) was 1048.5 ± 3 m/s. The speed of sound ([1]; 368.15 K) was 1032.2 ± 2.9 m/s, the speed of sound ([1]; 373.15 K) was 1015.9 ± 2.9 m/s and the speed of sound ([1]; 378.15 K) was 999.1 ± 2.9 m/s. The speed of sound ([1]; 383.15 K) was 982.7 ± 2.9 m/s, the speed of sound ([1]; 388.15 K) was 966.4 ± 2.8 m/s and the speed of sound ([1]; 393.15 K) was 950.3 ± 2.8 m/s. It also gave a speed of sound ([1]; 398.15 K) of 934.3 ± 2.8 m/s, a speed of sound ([1]; 403.15 K) of 918.4 ± 2.8 m/s and a speed of sound ([1]; 408.15 K) of 902.6 ± 2.8 m/s. It also gave a speed of sound ([1]; 413.15 K) of 887 ± 2.7 m/s, a speed of sound ([1]; 418.15 K) of 871.4 ± 2.7 m/s and a speed of sound ([1]; 423.15 K) of 856 ± 2.7 m/s.

CCCCCCCCC [nonane] showed a speed of sound ([1]; 293.15 K) of 1227.3 ± 3.2 m/s, a speed of sound ([1]; 298.15 K) of 1207.2 ± 3.2 m/s and a speed of sound ([1]; 303.15 K) of 1187.2 ± 3.2 m/s. For the same compound, the speed of sound ([1]; 308.15 K) was 1167.3 ± 3.1 m/s, the speed of sound ([1]; 313.15 K) was 1147.5 ± 3.1 m/s and the speed of sound ([1]; 318.15 K) was 1127.8 ± 3.1 m/s. For the same compound, the speed of sound ([1]; 323.15 K) was 1108.2 ± 3.1 m/s, the speed of sound ([1]; 328.15 K) was 1088.7 ± 3 m/s and the speed of sound ([1]; 333.15 K) was 1069.3 ± 3 m/s. For the same compound, the speed of sound ([1]; 338.15 K) was 1050 ± 3 m/s, the speed of sound ([1]; 343.15 K) was 1030.8 ± 2.9 m/s and the speed of sound ([1]; 348.15 K) was 1011.8 ± 2.9 m/s. The speed of sound ([1]; 353.15 K) was 992.8 ± 2.9 m/s, the speed of sound ([1]; 358.15 K) was 973.9 ± 2.9 m/s and the speed of sound ([1]; 363.15 K) was 955.2 ± 2.8 m/s. It also gave a speed of sound ([1]; 368.15 K) of 936.5 ± 2.8 m/s, a speed of sound ([1]; 373.15 K) of 917.9 ± 2.8 m/s and a speed of sound ([1]; 378.15 K) of 899.5 ± 2.8 m/s. It also gave a speed of sound ([1]; 383.15 K) of 881.1 ± 2.7 m/s, a speed of sound ([1]; 388.15 K) of 862.9 ± 2.7 m/s and a speed of sound ([1]; 393.15 K) of 844.7 ± 2.7 m/s. For the same compound, the speed of sound ([1]; 398.15 K) was 826.7 ± 2.7 m/s, the speed of sound ([1]; 403.15 K) was 808.8 ± 2.6 m/s and the speed of sound ([1]; 408.15 K) was 790.9 ± 2.6 m/s. For the same compound, the speed of sound ([1]; 413.15 K) was 773.2 ± 2.6 m/s, the speed of sound ([1]; 418.15 K) was 755.6 ± 2.6 m/s and the speed of sound ([1]; 423.15 K) was 738 ± 2.5 m/s.

Compound CCCCCCCCC [nonane] + CCCCCCCCCCl has a speed of sound ([2]; 293.15 K) of 1227.3 ± 3.2 m/s, a speed of sound ([2]; 298.15 K) of 1207.2 ± 3.2 m/s and a speed of sound ([2]; 303.15 K) of 1187.2 ± 3.2 m/s. The speed of sound ([2]; 308.15 K) was 1167.3 ± 3.1 m/s, the speed of sound ([2]; 313.15 K) was 1147.5 ± 3.1 m/s and the speed of sound ([2]; 318.15 K) was 1127.8 ± 3.1 m/s. It also gave a speed of sound ([2]; 323.15 K) of 1108.2 ± 3.1 m/s, a speed of sound ([2]; 328.15 K) of 1088.7 ± 3 m/s and a speed of sound ([2]; 333.15 K) of 1069.3 ± 3 m/s. The speed of sound ([2]; 338.15 K) was 1050 ± 3 m/s, the speed of sound ([2]; 343.15 K) was 1030.8 ± 2.9 m/s and the speed of sound ([2]; 348.15 K) was 1011.8 ± 2.9 m/s. The speed of sound ([2]; 353.15 K) was 992.8 ± 2.9 m/s, the speed of sound ([2]; 358.15 K) was 973.9 ± 2.9 m/s and the speed of sound ([2]; 363.15 K) was 955.2 ± 2.8 m/s. It also gave a speed of sound ([2]; 368.15 K) of 936.5 ± 2.8 m/s, a speed of sound ([2]; 373.15 K) of 917.9 ± 2.8 m/s and a speed of sound ([2]; 378.15 K) of 899.5 ± 2.8 m/s. For the same compound, the speed of sound ([2]; 383.15 K) was 881.1 ± 2.7 m/s, the speed of sound ([2]; 388.15 K) was 862.9 ± 2.7 m/s and the speed of sound ([2]; 393.15 K) was 844.7 ± 2.7 m/s. It also gave a speed of sound ([2]; 398.15 K) of 826.7 ± 2.7 m/s, a speed of sound ([2]; 403.15 K) of 808.8 ± 2.6 m/s and a speed of sound ([2]; 408.15 K) of 790.9 ± 2.6 m/s. For the same compound, the speed of sound ([2]; 413.15 K) was 773.2 ± 2.6 m/s, the speed of sound ([2]; 418.15 K) was 755.6 ± 2.6 m/s and the speed of sound ([2]; 423.15 K) was 738 ± 2.5 m/s.
